From patent publication US20070293445A1, “Stable Elsamitrucin Salts Suitable for Pharmaceutical Formulations” (SPECTRUM PHARMACEUTICALS, INC., priority 2006, published 2007)
Where two headings read alike, the source gives them in different places.

What was measured:
[1] = tested on: clinical breast cancer specimens from untreated patients; conditions: cited from earlier work
[2] = tested on: B16F10 murine melanoma cells; experiment: MTT cell growth inhibition, B16F10; format: cell-based; conditions: 5-10 days incubation
Experimental: (§1) Elsamitrucin and Elsamitrucin tosylate were tested in vitro using: B16F10 (murine […]), HCT 116 (human colon), HT29 (human colon) and SK-MES-1 (human non-small cell lung carcinoma ). Cell growth inhibition was evaluated in 96-well micro-culture plates with a semi-automated MTT (3-(4,5-dimethylthiazol-2-yl)-2,5-diphenyltetrazolium bromide) assay.
(§2) SK-MES-1 human non-small cell lung carcinoma, B16F10 murine melanoma cells, HCT 116 and HT29 human colon carcinomas (collectively “test cell cultures”) were maintained in buffered RPMI 1640 supplemented with fetal calf serum, antibiotics and other appropriate growth factors such as glutamine. Test cells (1,500-2,000 cells/well) were seeded in a 96-well micro culture plate with a total volume of 100 μL/well. After overnight incubation in a humidified incubator at 37° C. with 5% CO2 and 95% air, elsamitrucin solutions were diluted to various concentrations with RPMI 1640, were added to each well in a 100 μL volume. The elsamitrucin base and the elsamitrucin tosylate solutions (elsamitrucin solutions) were prepared and stored in a −20° C. freezer. The solutions were thawed not more than 10 times for the entire experiment.
(§3) Cell culture plates seeded with test cells and various concentrations of elsamitrucin solutions were placed in a humidified incubator at 37° C., with CO2 and 95% air for 5-10 days. […]

MDA-MB-231 = conditions: ER− MDA-MB-231; cited from earlier work
[3] = tested on: HT29 human colon carcinoma; experiment: MTT cell growth inhibition, HT29; format: cell-based; conditions: 5-10 days incubation
Experimental: as §1, §2, §3

[4] = tested on: SK-MES-1 human non-small cell lung carcinoma; experiment: MTT cell growth inhibition, SK-MES-1; format: cell-based; conditions: 5-10 days incubation
Experimental: as §1, §2, §3

MCF7 = conditions: ER+ MCF7; cited from earlier work
[5] = tested on: HCT 116 human colon carcinoma; experiment: MTT cell growth inhibition, HCT 116; format: cell-based; conditions: 5-10 days incubation
Experimental: as §1, §2, §3

MCF7DX = MCF7DX subline; cited from earlier work
[6] = tested on: patients with refractory/relapsed non-Hodgkin's lymphoma; conditions: cited from earlier work

In the case of “benzo(h)(1)benzopyrano(5,4,3-cde)(1)ebnzopyran-5,12-dione,10((2-O-(2-amino-2,6-dideoxy-3-O-methyl-alpha-D-galactopyranosyl)-6-deoxy-3-C-methyl-beta-D-galactopyranosyl)oxy)-6-hydroxy-1-methyl [Elsamitrucin]”, the minimal inhibiting concentration ([1]; ER+ tumors) is listed as 0.1 micrograms/ml, the minimal inhibiting concentration ([1]; ER− tumors) is listed as 3.5 micrograms/ml and the IC50 [2] is listed as 0.024 µM. For the same substance, the IC50 antiproliferative effect (MDA-MB-231) was 0.21 micrograms/ml, the IC50 [3] was 0.095 µM and the IC50 [4] was 0.042 µM. The IC50 antiproliferative effect (MCF7) was 0.25 micrograms/ml, the IC50 [5] was 0.074 µM and the “cross-resistance to doxorubicin (DX)” value (MCF7DX) was “cross-resistant to DX”. For the same substance, the elsamitrucin-associated toxicity [6] was “relatively mild” and the myelosuppression [6] was “did not include myelosuppression”.
